This note sets out measurements from patent US8748415B2 (priority 2011, dated 2014).

The first assay has as its system recombinant NL4-3 virus (Renilla luciferase in nef, Gag P373S). Description: HIV cell culture assay (luciferase activity in MT-2 cells infected with NLRluc recombinant virus). It is filed as cell-based. The conditions noted are these: NL43, MT-2 cells infected 4-5 days with NLRluc recombinant virus, class symbol. The method, boiled down:
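MT-2 cells in RPMI/10% FBS were infected with recombinant NL4-3 (NLRluc), produced by 293T transfection and titered in MT-2 by luciferase. Serial inhibitor dilutions were present throughout a 4–5 day infection. Antiviral activity was quantified as Renilla luciferase signal via a modified Dual Luciferase read.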
As to `C=C(C)[C@@H]1CC[C@]2(CNCCn3ccnc3C)CC[C@]3(C)[C@H](CC[C@@H]4[C@@]5(C)CC=C(c6ccc(C(=O)O)cc6)C(C)(C)[C@@H]5CC[C@]43C)[C@@H]12` [Example 59, 4-((1R,3aS,5aR,5bR,7aR,11aS,11bR,13aR,13bR)-5a,5b,8,8,11a-pentamethyl-3a-((2-(2-methyl-1H-imidazol-1-yl)ethylamino)methyl)-1-(prop-1-en-2-yl)-2,3,3a,4,5,5a,5b,6,7,7a,8,11,11a,11b,12,13,13a,13b-octadecahydro-1H-cyclopenta[a]chrysen-9-yl)benzoic acid], the EC50 was below 0.1 µM.

For `C=C(C)[C@@H]1CC[C@]2(CNCCCN(CCO)CCO)CC[C@]3(C)[C@H](CC[C@@H]4[C@@]5(C)CC=C(c6ccc(C(=O)O)cc6)C(C)(C)[C@@H]5CC[C@]43C)[C@@H]12` [Example 60, 4-((1R,3aS,5aR,5bR,7aR,11aS,11bR,13aR,13bR)-3a-((3-(bis(2-hydroxyethyl)amino)propylamino)methyl)-5a,5b,8,8,11a-pentamethyl-1-(prop-1-en-2-yl)-2,3,3a,4,5,5a,5b,6,7,7a,8,11,11a,11b,12,13,13a,13b-octadecahydro-1H-cyclopenta[a]chrysen-9-yl)benzoic acid], the half-maximal effective concentration (EC50) is below 0.1 µM.

Regarding `C=C(C)[C@@H]1CC[C@]2(CNCCCNCCO)CC[C@]3(C)[C@H](CC[C@@H]4[C@@]5(C)CC=C(c6ccc(C(=O)O)cc6)C(C)(C)[C@@H]5CC[C@]43C)[C@@H]12` [Example 61, 4-((1R,3aS,5aR,5bR,7aR,11aS,11bR,13aR,13bR)-3a-((3-(2-hydroxyethylamino)propylamino)methyl)-5a,5b,8,8,11a-pentamethyl-1-(prop-1-en-2-yl)-2,3,3a,4,5,5a,5b,6,7,7a,8,11,11a,11b,12,13,13a,13b-octadecahydro-1H-cyclopenta[a]chrysen-9-yl)benzoic acid], the EC50 was below 0.1 µM.

On to `C=C(C)[C@@H]1CC[C@]2(CNCCNCCO)CC[C@]3(C)[C@H](CC[C@@H]4[C@@]5(C)CC=C(c6ccc(C(=O)O)cc6)C(C)(C)[C@@H]5CC[C@]43C)[C@@H]12` [Example 62, 4-((1R,3aS,5aR,5bR,7aR,11aS,11bR,13aR,13bR)-3a-((2-(2-hydroxyethylamino)ethylamino)methyl)-5a,5b,8,8,11a-pentamethyl-1-(prop-1-en-2-yl)-2,3,3a,4,5,5a,5b,6,7,7a,8,11,11a,11b,12,13,13a,13b-octadecahydro-1H-cyclopenta[a]chrysen-9-yl)benzoic acid], for which the EC50 was below 0.1 µM.

For the compound `C=C(C)[C@@H]1CC[C@]2(CNCCN3CCOCC3)CC[C@]3(C)[C@H](CC[C@@H]4[C@@]5(C)CC=C(c6ccc(C(=O)O)cc6)C(C)(C)[C@@H]5CC[C@]43C)[C@@H]12` [Example 63, 4-((1R,3aS,5aR,5bR,7aR,11aS,11bR,13aR,13bR)-5a,5b,8,8,11a-pentamethyl-3a-((2-morpholinoethylamino)methyl)-1-(prop-1-en-2-yl)-2,3,3a,4,5,5a,5b,6,7,7a,8,11,11a,11b,12,13,13a,13b-octadecahydro-1H-cyclopenta[a]chrysen-9-yl)benzoic acid], the EC50 was below 0.1 µM.

For `C=C(C)[C@@H]1CC[C@]2(CNCCC(=O)O)CC[C@]3(C)[C@H](CC[C@@H]4[C@@]5(C)CC=C(c6ccc(C(=O)O)cc6)C(C)(C)[C@@H]5CC[C@]43C)[C@@H]12` [Example 64, 4-((1R,3aS,5aR,5bR,7aR,11aS,11bR,13aR,13bR)-3a-((2-carboxymethylamino)methyl)-5a,5b,8,8,11a-pentamethyl-1-(prop-1-en-2-yl)-2,3,3a,4,5,5a,5b,6,7,7a,8,11,11a,11b,12,13,13a,13b-octadecahydro-1H-cyclopenta[a]chrysen-9-yl)benzoic acid], the EC50 was below 0.1 µM.

For the compound `C=C(C)[C@@H]1CC[C@]2(CNCC3(CN4CCCC4)CC3)CC[C@]3(C)[C@H](CC[C@@H]4[C@@]5(C)CC=C(c6ccc(C(=O)O)cc6)C(C)(C)[C@@H]5CC[C@]43C)[C@@H]12` [Example 66, 4-((1R,3aS,5aR,5bR,7aR,11aS,11bR,13aR,13bR)-5a,5b,8,8,11a-pentamethyl-1-(prop-1-en-2-yl)-3a-(((1-(pyrrolidin-1-ylmethyl)cyclopropyl)methylamino)methyl)-2,3,3a,4,5,5a,5b,6,7,7a,8,11,11a,11b,12,13,13a,13b-octadecahydro-1H-cyclopenta[a]chrysen-9-yl)benzoic acid], the EC50 was below 0.1 µM.

In the case of `C=C(C)[C@@H]1CC[C@]2(CNCCCN)CC[C@]3(C)[C@H](CC[C@@H]4[C@@]5(C)CC=C(c6ccc(C(=O)O)cc6)C(C)(C)[C@@H]5CC[C@]43C)[C@@H]12` [Example 67, 4-((1R,3aS,5aR,5bR,7aR,11aS,11bR,13aR,13bR)-3a-((3-aminopropylamino)methyl)-5a,5b,8,8,11a-pentamethyl-1-(prop-1-en-2-yl)-2,3,3a,4,5,5a,5b,6,7,7a,8,11,11a,11b,12,13,13a,13b-octadecahydro-1H-cyclopenta[a]chrysen-9-yl)benzoic acid], the EC50 is below 0.1 µM.

In the case of `C=C(C)[C@@H]1CC[C@]2(CNCCCN3CCCC3)CC[C@]3(C)[C@H](CC[C@@H]4[C@@]5(C)CC=C(c6ccc(C(=O)O)cc6)C(C)(C)[C@@H]5CC[C@]43C)[C@@H]12` [Example 68, 4-((1R,3aS,5aR,5bR,7aR,11aS,11bR,13aR,13bR)-5a,5b,8,8,11a-pentamethyl-1-(prop-1-en-2-yl)-3a-((3-(pyrrolidin-1-yl)propylamino)methyl)-2,3,3a,4,5,5a,5b,6,7,7a,8,11,11a,11b,12,13,13a,13b-octadecahydro-1H-cyclopenta[a]chrysen-9-yl)benzoic acid], the 50% effective concentration (EC50) was below 0.1 µM.

Regarding `C=C(C)[C@@H]1CC[C@]2(CNCCCO)CC[C@]3(C)[C@H](CC[C@@H]4[C@@]5(C)CC=C(c6ccc(C(=O)O)cc6)C(C)(C)[C@@H]5CC[C@]43C)[C@@H]12` [Example 69, 4-((1R,3aS,5aR,5bR,7aR,11aS,11bR,13aR,13bR)-3a-((3-hydroxypropylamino)methyl)-5a,5b,8,8,11a-pentamethyl-1-(prop-1-en-2-yl)-2,3,3a,4,5,5a,5b,6,7,7a,8,11,11a,11b,12,13,13a,13b-octadecahydro-1H-cyclopenta[a]chrysen-9-yl)benzoic acid], the EC50 is below 0.1 µM.

Still in this assay, the particulars now being: NL43, MT-2 cells infected 4-5 days with NLRluc recombinant virus, numeric value.
Consider `C=C(C)[C@@H]1CC[C@]2(CNCCCBr)CC[C@]3(C)[C@H](CC[C@@H]4[C@@]5(C)CC=C(c6ccc(C(=O)O)cc6)C(C)(C)[C@@H]5CC[C@]43C)[C@@H]12` [Example 65, 4-((1R,3aS,5aR,5bR,7aR,11aS,11bR,13aR,13bR)-3a-((3-bromopropylamino)methyl)-5a,5b,8,8,11a-pentamethyl-1-(prop-1-en-2-yl)-2,3,3a,4,5,5a,5b,6,7,7a,8,11,11a,11b,12,13,13a,13b-octadecahydro-1H-cyclopenta[a]chrysen-9-yl)benzoic acid], for which the EC50 was 0.001 µM.

One may read the EC50 as the concentration giving half of the maximal effect.
